US20100292217A1, “RANOLAZINE FOR THE TREATMENT OF CNS DISORDERS” (Gilead Palo Alto, Inc., priority 2009, published 2010)
Where two headings read alike, the source gives them in different places.

How the values were obtained:
[1] = biological target: cardiac voltage-gated potassium channel HERG (Homo sapiens, UniProt Q12809); conditions: accounts for mild QT interval prolongation in some subjects; cited from earlier work
[2] = Sicouri 2008; Chaitman 2006; cited from earlier work
[3] = tested on: Nav1.4; conditions: inverse sodium gradient, Wang et al. 2008; cited from earlier work
[4] = biological target: T1, Nav1.1 R1648H (Homo sapiens, UniProt P35498, R1648H); experiment: Whole-cell voltage-clamp of mutant Nav1.1 R1648H (GEFS+); assay type: cell-based
T1 construct: expressed in transfected cells; host or cells: tsA201 cells (named for WT; same transient transfection method for mutants)

[5] = usual clinical dosages; minority with mild dizziness, nausea, headache, constipation; cited from earlier work
[6] = Brain penetration in rats after continuous intravenous infusion (LC-MS/MS); assay type: in vivo, Sprague Dawley rats; conditions: for concentration at 1 h / concentration at 2.5 h / concentration at 5 h: 85.5 μg/kg/min
Experimental: Jugular vein cannulated male Sprague Dawley rats (250-350 g, Charles River Laboratories, Hollister, Calif.) were used to study brain penetration of ranolazine in vivo. Animal use was approved by the Institutional Animal Care and Use Committee, Gilead Sciences. Three rats per group were infused intravenously with ranolazine in saline at 85.5 μg/kg/min. After 1, 2.5 or 5 h animals were sacrificed for plasma and brain collection, and ranolazine concentrations were measured by liquid chromatography coupled with tandem mass spectrometry (LC-MS/MS). Brain tissue was homogenated in 1% 2N HCl acidified 5% sodium fluoride (final homogenate was diluted 3-fold). Plasma and brain homogenate samples (50 μl) were precipitated along with deuterated D3-ranolazine as an internal standard, vortexed and centrifuged. The supernatant (50 μL) was transferred and diluted with water (450 μl) prior to injection (10 μl). High performance liquid chromatography was performed using a Shimadzu LC-10AD liquid chromatograph and a Luna C18(2), 3 μm, 20×2.0 mm column with a mobile phase consisting of water containing 0.1% formic acid (solution A) and acetonitrile (solution B) carried out under isocratic conditions (75% solution A, 25% solution B; flow rate 0.300 ml/min). Mass spectrometric analyses were performed using an API3000 mass spectrometer (Applied Biosystems, Foster City, Calif.) operating in positive ion mode with MRM transition 428.1>98. Brain-to-plasma ranolazine ratios were calculated for each sample as ng ranolazine/g brain divided by ng ranolazine/ml plasma.

[7] = biological target: T2, WT-Nav1.1 (Homo sapiens, UniProt P35498); experiment: Whole-cell voltage-clamp of WT-Nav1.1 expressed heterologously in tsA201 cells; assay type: cell-based
T2 construct: expressed in transfected cells; host or cells: tsA201 cells, transient transfection

[8] = tested on: Nav1.1 mutant channels (R1648H, T875M, R1648C, F1661S, L263V, Q1489K); experiment: Whole-cell voltage-clamp of panel of Nav1.1 mutant channels (GEFS+, SMEI, FHM3); assay type: cell-based, Human
[9] = biological target: T3, WT-Nav1.2 (Homo sapiens, UniProt Q99250); experiment: Whole-cell voltage-clamp of WT-Nav1.2 stably transfected in CHO cells; assay type: cell-based; conditions: Example 2; methods in present tense, no data given
T3 construct: expressed in transfected cells
T3 sequence (Q99250 whole entry): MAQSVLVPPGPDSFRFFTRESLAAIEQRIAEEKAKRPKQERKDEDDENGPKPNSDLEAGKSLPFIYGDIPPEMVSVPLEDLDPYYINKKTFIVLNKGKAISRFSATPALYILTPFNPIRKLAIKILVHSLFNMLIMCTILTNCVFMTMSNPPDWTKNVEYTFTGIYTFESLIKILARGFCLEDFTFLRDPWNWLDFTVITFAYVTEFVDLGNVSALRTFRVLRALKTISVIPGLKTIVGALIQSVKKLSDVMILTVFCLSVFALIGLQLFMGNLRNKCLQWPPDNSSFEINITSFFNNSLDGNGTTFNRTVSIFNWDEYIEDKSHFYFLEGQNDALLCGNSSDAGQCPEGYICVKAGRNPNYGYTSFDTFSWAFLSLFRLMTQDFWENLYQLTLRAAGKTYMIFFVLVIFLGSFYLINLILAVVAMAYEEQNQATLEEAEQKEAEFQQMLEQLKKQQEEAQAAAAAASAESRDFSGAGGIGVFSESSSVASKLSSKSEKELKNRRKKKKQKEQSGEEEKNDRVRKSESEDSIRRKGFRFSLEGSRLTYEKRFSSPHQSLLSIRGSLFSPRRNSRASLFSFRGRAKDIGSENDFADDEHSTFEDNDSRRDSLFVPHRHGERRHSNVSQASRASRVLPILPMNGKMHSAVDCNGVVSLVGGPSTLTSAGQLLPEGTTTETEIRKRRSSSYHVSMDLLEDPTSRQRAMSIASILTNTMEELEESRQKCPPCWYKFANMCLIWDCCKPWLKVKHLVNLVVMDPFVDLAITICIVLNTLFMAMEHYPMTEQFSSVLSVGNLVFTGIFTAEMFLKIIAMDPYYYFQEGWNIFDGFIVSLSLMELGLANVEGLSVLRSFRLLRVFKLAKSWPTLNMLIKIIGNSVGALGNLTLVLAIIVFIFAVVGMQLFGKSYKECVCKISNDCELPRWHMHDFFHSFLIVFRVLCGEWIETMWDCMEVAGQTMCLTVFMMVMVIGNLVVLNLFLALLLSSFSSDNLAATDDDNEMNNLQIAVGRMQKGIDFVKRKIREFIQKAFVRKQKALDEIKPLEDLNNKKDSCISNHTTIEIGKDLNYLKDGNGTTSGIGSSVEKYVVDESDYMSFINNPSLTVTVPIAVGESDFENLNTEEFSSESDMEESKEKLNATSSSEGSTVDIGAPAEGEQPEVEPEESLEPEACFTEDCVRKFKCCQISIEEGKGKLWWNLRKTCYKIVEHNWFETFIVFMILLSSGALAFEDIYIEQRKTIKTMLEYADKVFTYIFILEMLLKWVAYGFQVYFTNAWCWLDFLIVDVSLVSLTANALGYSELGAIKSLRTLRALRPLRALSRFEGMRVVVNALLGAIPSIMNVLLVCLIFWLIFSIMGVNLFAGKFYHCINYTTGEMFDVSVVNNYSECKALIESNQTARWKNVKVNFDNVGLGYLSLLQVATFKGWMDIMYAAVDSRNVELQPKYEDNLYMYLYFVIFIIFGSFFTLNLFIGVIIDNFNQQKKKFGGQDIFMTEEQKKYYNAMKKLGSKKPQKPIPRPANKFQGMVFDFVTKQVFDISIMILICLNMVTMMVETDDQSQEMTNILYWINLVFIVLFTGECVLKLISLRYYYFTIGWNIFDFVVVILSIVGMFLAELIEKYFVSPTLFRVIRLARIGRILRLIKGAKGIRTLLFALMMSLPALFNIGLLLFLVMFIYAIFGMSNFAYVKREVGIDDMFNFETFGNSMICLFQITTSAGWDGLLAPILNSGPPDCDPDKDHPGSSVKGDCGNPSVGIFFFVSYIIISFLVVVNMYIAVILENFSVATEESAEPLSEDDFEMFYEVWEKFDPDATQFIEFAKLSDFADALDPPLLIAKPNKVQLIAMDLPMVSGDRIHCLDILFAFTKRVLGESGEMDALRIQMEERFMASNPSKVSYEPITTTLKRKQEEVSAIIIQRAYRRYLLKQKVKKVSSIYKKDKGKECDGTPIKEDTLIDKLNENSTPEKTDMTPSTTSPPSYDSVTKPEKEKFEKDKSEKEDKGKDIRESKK

[10] = 3 μM ranolazine, pulse trains 10-135 Hz
[11] = pulse 300 of 10 Hz train, read-out: Use-Dependent Block of Peak Current IC50
[12] = read-out: Tonic Block of Peak Current IC50
[13] = read-out: Tonic Block of Persistent Current IC50
[14] = summary statement, persistent current evoked by SCN1A mutations, channel not specified

cardiac voltage-gated potassium channel HERG, sequence (Q12809 whole entry): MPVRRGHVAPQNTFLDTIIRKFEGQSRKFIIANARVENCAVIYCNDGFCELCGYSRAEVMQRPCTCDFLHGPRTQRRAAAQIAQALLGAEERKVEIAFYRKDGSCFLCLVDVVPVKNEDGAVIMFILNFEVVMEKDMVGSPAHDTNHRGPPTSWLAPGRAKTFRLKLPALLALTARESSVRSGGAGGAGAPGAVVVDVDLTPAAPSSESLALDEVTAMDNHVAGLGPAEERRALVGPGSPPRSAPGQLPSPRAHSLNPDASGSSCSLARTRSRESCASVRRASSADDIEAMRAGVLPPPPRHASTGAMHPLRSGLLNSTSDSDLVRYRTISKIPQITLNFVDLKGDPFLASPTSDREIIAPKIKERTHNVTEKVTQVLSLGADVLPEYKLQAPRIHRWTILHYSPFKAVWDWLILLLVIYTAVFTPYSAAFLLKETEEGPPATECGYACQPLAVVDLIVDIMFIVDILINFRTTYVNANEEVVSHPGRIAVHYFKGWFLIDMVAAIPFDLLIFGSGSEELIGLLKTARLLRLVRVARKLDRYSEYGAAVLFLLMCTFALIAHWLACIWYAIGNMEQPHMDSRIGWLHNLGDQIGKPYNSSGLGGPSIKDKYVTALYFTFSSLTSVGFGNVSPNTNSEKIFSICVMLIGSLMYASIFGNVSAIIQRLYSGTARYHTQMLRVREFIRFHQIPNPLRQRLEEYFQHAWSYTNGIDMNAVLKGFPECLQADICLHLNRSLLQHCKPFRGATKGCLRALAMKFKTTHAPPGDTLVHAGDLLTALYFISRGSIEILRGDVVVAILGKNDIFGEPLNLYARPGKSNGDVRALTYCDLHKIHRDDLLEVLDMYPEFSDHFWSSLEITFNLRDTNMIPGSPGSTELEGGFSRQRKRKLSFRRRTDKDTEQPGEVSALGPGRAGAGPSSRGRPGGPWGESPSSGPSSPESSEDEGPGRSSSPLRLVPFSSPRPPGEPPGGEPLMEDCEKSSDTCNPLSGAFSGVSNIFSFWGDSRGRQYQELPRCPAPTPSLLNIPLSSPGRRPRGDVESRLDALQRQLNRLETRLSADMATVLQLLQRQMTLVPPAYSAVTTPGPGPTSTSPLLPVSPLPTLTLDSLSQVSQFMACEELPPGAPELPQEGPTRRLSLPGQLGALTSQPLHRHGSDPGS

Structure (SMILES): COc1ccccc1OCC(O)CN1CCN(CC(=O)Nc2c(C)cccc2C)CC1 (racemic) [Ranolazine, (±)-N-(2,6-dimethylphenyl)-4-[2-hydroxy-3-(2-methoxyphenoxy)-propyl]-1-piperazineacetamide]
- Block of HERG [1]: blocks
- Usual therapeutic plasma concentration [2]: 2 to 10 µM
- Association rate kon [3]: 8.2e+06 M⁻¹ s⁻¹
- Potency at inhibiting persistent current compared to use-dependent block of peak current [4]: 4.6 fold
- Selectivity for tonic block of persistent current over peak current [4]: approximately 16 fold
- Tonic Block of Peak Current k (Hill slope) [4]: −1.00 ± 0.19
- Tonic Block of Persistent Current k (Hill slope) [4]: −1.00 ± 0.09
- Charge conducted during slow depolarizing voltage ramp (−40 to 0 mV, normalized to peak current) ([4]; 3 μM ranolazine, 20 mV/s ramp): reduced the charge conducted by R1648H to the level observed in cells expressing WT channels recorded in the absence of drug
- Use-dependent block: loss of channel availability [4, 10]: exaggerated loss of availability at all frequencies greater than 22 Hz
- Effect on persistent current ([4]; 30 μM ranolazine): substantially reduced
- Tonic block of peak current ([4]; 30 μM ranolazine): minimal tonic block
- Use-Dependent Block of Peak Current k (Hill slope) ([4]; 10 Hz train): −0.88 ± 0.03
- IC50 [4, 11]: 138 µM
- IC50 [4, 12]: 490 µM
- IC50 [4, 13]: 30.2 µM
- Tolerability [5]: well tolerated
- Feasible brain concentration ([6]; extrapolated from therapeutic plasma concentration 2-10 μM): up to 3.3 μM
- Kp at 1 h ([6]; male, Sprague Dawley, brain, iv, rat, i.v. infusion 85.5 μg/kg/min, 1 h, read-out: Brain/Plasma): 0.38
- Kp at 2.5 h ([6]; male, Sprague Dawley, brain, iv, rat, i.v. infusion 85.5 μg/kg/min, 2.5 h, read-out: Brain/Plasma): 0.38
- Kp at 5 h ([6]; male, Sprague Dawley, brain, iv, rat, i.v. infusion 85.5 μg/kg/min, 5 h, read-out: Brain/Plasma): 0.3
- concentration at 1 h ([6]; male, Sprague Dawley, rat, brain, iv, Brain (molar), rat, i.v. infusion 85.5 μg/kg/min, 1 h, heading: Brain): 700 nM
- concentration at 2.5 h ([6]; male, Sprague Dawley, rat, brain, iv, Brain (molar), rat, i.v. infusion 85.5 μg/kg/min, 2.5 h, heading: Brain): 1040 nM
- concentration at 1 h ([6]; male, Sprague Dawley, rat, brain, iv, rat, i.v. infusion 85.5 μg/kg/min, 1 h, read-out: Brain): 298 ± 88.6 ng/g
- concentration at 2.5 h ([6]; male, Sprague Dawley, rat, brain, iv, rat, i.v. infusion 85.5 μg/kg/min, 2.5 h, read-out: Brain): 446 ± 302 ng/g
- concentration at 5 h ([6]; male, Sprague Dawley, rat, brain, iv, rat, i.v. infusion 85.5 μg/kg/min, 5 h, read-out: Brain): 470 ± 300 ng/g
- concentration at 1 h ([6]; male, Sprague Dawley, rat, plasma, iv, rat, i.v. infusion 85.5 μg/kg/min, 1 h, read-out: Plasma): 777 ± 255 ng/mL
- concentration at 2.5 h ([6]; male, Sprague Dawley, rat, plasma, iv, rat, i.v. infusion 85.5 μg/kg/min, 2.5 h, read-out: Plasma): 1180 ± 456 ng/mL
- concentration at 5 h ([6]; male, Sprague Dawley, rat, plasma, iv, rat, i.v. infusion 85.5 μg/kg/min, 5 h, heading: Plasma, read-out: Plasma): 3720 nM
- concentration at 5 h ([6]; male, Sprague Dawley, rat, plasma, iv, rat, i.v. infusion 85.5 μg/kg/min, 5 h, read-out: Plasma): 1590 ± 488 ng/mL
- Brain penetration ([6]; rat, all time points (1, 2.5, 5 h)): significant brain penetration
- Brain ([6]; rat, i.v. infusion 85.5 μg/kg/min, 5 h): 470 ng/g
- Mean brain levels as fraction of corresponding plasma levels ([6]; rat, throughout the time course 1-5 h): approximately one third
- Potency at inhibiting persistent current compared to use-dependent block of peak current [7]: 3.6 fold
- Selectivity for tonic block of persistent current over peak current [7]: approximately 16 fold
- Tonic Block of Peak Current k (Hill slope) [7]: −0.84 ± 0.15
- Tonic Block of Persistent Current k (Hill slope) [7]: −0.83 ± 0.06
- Use-dependent block: loss of channel availability [7, 10]: exaggerated loss of availability at all frequencies greater than 22 Hz
- Effect on peak current density ([7]; 30 μM ranolazine): no significant effect
- Shift of voltage-dependence of activation or inactivation ([7]; 30 μM ranolazine): did not significantly shift
- Tonic block of peak current ([7]; 30 μM ranolazine): minimal
- Use-dependent block: peak current during repetitive pulsing ([7]; 30 μM ranolazine, 5 ms, −10 mV, 300 pulses, 10 Hz): caused a reduction in peak current during repetitive pulsing
- Inactivation k (slope factor) ([7]; 30 μM ranolazine, fast inactivation): −8.0 ± 0.5 mV
- Inactivation V1/2 ([7]; 30 μM ranolazine, fast inactivation, 100 ms prepulses): −64.2 ± 0.8 mV
- Activation V1/2 ([7]; 30 μM ranolazine, n=10): −21.6 ± 0.8 mV
- Activation k (slope factor) ([7]; 30 μM ranolazine, n=10): 8.0 ± 0.2 mV
- Use-Dependent Block of Peak Current k (Hill slope) ([7]; 10 Hz train): −0.84 ± 0.05
- IC50 [7, 11]: 195 µM
- IC50 [7, 12]: 871 µM
- IC50 [7, 13]: 53.7 µM
- Use-dependent block: channel availability by the 300th pulse ([8]; 30 μM ranolazine, WT-Nav1.1 and mutant channels, 10 Hz): significant loss of channel availability
- Block of persistent current compared to peak current ([8]; 30 μM ranolazine, all mutants, tonic block): much greater degree of ranolazine block of persistent current as compared to peak current
- Use-dependent reduction in channel availability compared to WT-Nav1.1 ([8]; 30 μM ranolazine, mutants R1648H, T875M and R1648C): significantly greater reduction in channel availability
- Level of persistent current in presence of ranolazine versus WT-Nav1.1 without drug ([8]; 30 μM ranolazine, mutants R1648H, T875M, L263V): not significantly different from WT-Nav1.1 channels in the absence of drug
- Greater inhibition of persistent current compared to tonic block of peak current [8, 14]: 16 fold
- Greater inhibition of persistent current compared to use-dependent block of peak current [8, 14]: 5 fold
- Inhibition of WT-Nav1.2 [9]: has the ability to inhibit WT-Nav1.2
